Experimental data taken from patent publication US11000033B2, “Ketone or oxime compound, and herbicide” (NISSAN CHEMICAL CORPORATION, priority 2014, dated 2021).

Tests used:
Assay type in all cases: in vivo
rice = test: Test Example 4: effect on crop by soil treatment (symbol b); details: application herbicide amount 320 g/ha
Summary of the method: (§1)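 Plants are raised in a greenhouse (25° C. to 30° C.) from spot-sown seed, which sits under about 1.5 cm of sterilized diluvial soil in a box shared with weed species.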

Cyperus difformis = test: Test Example 3: herbicidal effect by foliage application, Wagner pot (symbol E); details: application herbicide amount 320 g/ha
Summary of the method: (§2)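 Herbicidal activity was rated three weeks after a foliar spray of diluted emulsion concentrate, applied at a predetermined dose to plants grown for 14 days from seed in waterlogged alluvial soil within a 25–30 °C greenhouse.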

Alopecurus myosuroides = test: Test Example 5: herbicidal effect by foliage application, plastic box (symbol J); details: 320 g/ha, 3 weeks after application
Summary of the method: (§3)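 Greenhouse foliar test: seedlings at 14 days, grown 25° C. to 30° C. in sterilized diluvial soil; compound applied as an aqueous dilution of an emulsion; response read 3 weeks after spraying.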

Setaria viridis = test: Test Example 5: herbicidal effect by foliage application, plastic box (symbol G); details: 320 g/ha, 3 weeks after application
Summary of the method: as §3

rice plant = test: Test Example 5: effect on crop by foliage application, plastic box (symbol b); details: 320 g/ha, 3 weeks after application
Summary of the method: (§4)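 Soil: sterilized diluvial. Container: plastic box, 21 × 13 cm, 7 cm deep. Sowing: spot-like, ~1.5 cm cover. Growth: greenhouse, 25° C. to 30° C.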

Leptochloa chinensis = test: Test Example 3: herbicidal effect by foliage application, Wagner pot (symbol D); details: application herbicide amount 320 g/ha
Summary of the method: as §2

[1] = test system: Echinochloa crus-galli var. crus-galli; test: Test Example 4: herbicidal effect by soil treatment (symbol H); details: application herbicide amount 320 g/ha
Summary of the method: (§5)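 Seeds were sown in sterilized diluvial soil, covered with about 1.5 cm of soil, and the soil surface was sprayed with a water-diluted emulsion of the compound at a predetermined rate. Plants grew in a greenhouse at 25° C. to 30° C.; effects were scored visually 3 weeks after application.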

soybean = test: Test Example 5: effect on crop by foliage application, plastic box (symbol d); details: 320 g/ha, 3 weeks after application
Summary of the method: as §4

Chenopodium album [2] = test: Test Example 4: herbicidal effect by soil treatment (symbol O); details: application herbicide amount 320 g/ha
Summary of the method: as §5

Stellaria media = test: Test Example 5: herbicidal effect by foliage application, plastic box (symbol P); details: 320 g/ha, 3 weeks after application
Summary of the method: as §3

Scirpus juncoides = test: Test Example 1: herbicidal activity, application before weed generation in submerged conditions (symbol B); details: application herbicide amount 320 g/ha
Summary of the method: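 Greenhouse growth at 25–30 °C lasted 3 weeks after treatment, when each weed was graded 0–5 by herbicidal ratio. Treatment was a diluted emulsion applied to the water surface of 4 cm-submerged alluvial soil on the sowing day.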

Lolium multiflorum Lam. = test: Test Example 4: herbicidal effect by soil treatment (symbol K); details: application herbicide amount 320 g/ha
Summary of the method: as §5

Abutilon theophrasti = test: Test Example 5: herbicidal effect by foliage application, plastic box (symbol M); details: 320 g/ha, 3 weeks after application
Summary of the method: as §3

beet = test: Test Example 4: effect on crop by soil treatment (symbol f); details: application herbicide amount 320 g/ha
Summary of the method: as §1

Amaranthus retroflexus = test: Test Example 4: herbicidal effect by soil treatment (symbol N); details: application herbicide amount 320 g/ha
Summary of the method: as §5

Digitaria ciliaris = test: Test Example 4: herbicidal effect by soil treatment (symbol F); details: application herbicide amount 320 g/ha
Summary of the method: as §5

Chenopodium album [3] = test: Test Example 5: herbicidal effect by foliage application, plastic box (symbol O); details: 320 g/ha, 3 weeks after application
Summary of the method: as §3

Veronica persica = test: Test Example 5: herbicidal effect by foliage application, plastic box (symbol R); details: 320 g/ha, 3 weeks after application
Summary of the method: as §3

SMILES	b: directly sowed rice plant, effect on crop grade (rice)	herbicidal effect on E, grade 0-5 (Cyperus difformis)	J: Alopecurus myosuroides, herbicidal effect grade (Alopecurus myosuroides)	G: Setaria viridis, herbicidal effect grade (Setaria viridis)	b: directly sowed rice plant, effect on crop grade (rice plant)	herbicidal effect on D (Leptochloa chinensis), grade 0-5 (Leptochloa chinensis)	H: Echinochloa crus-galli var. crus-galli, herbicidal effect grade [1]	d: soybean, effect on crop grade (soybean)	O: Chenopodium album, herbicidal effect grade (Chenopodium album [2])	P: Stellaria media, herbicidal effect grade (Stellaria media)	Herbicidal effect grade, B: Scirpus juncoides (Scirpus juncoides)	K: Lolium multiflorum Lam., herbicidal effect grade (Lolium multiflorum Lam.)	M: Abutilon theophrasti, herbicidal effect grade (Abutilon theophrasti)	f: beet, effect on crop grade (beet)	N: Amaranthus retroflexus, herbicidal effect grade (Amaranthus retroflexus)	F: Digitaria ciliaris, herbicidal effect grade (Digitaria ciliaris)	O: Chenopodium album, herbicidal effect grade (Chenopodium album [3])	R: Veronica persica, herbicidal effect grade (Veronica persica)
CON=CC1CC(O)=C(c2c(C)cc(C)cc2C)C1=O (mixture of isomers) [3-001]	2 (Herbicidal ratio of 20% or higher and lower than 40%)	0 (Herbicidal ratio of 5% or lower (almost no effect))	3 (Herbicidal ratio of 40% or higher and lower than 70%)	3 (Herbicidal ratio of 40% or higher and lower than 70%)	4 (Herbicidal ratio of 70% or higher and lower than 90%)	2 (Herbicidal ratio of 20% or higher and lower than 40%)	0 (Herbicidal ratio of 5% or lower (almost no effect))	0 (Herbicidal ratio of 5% or lower (almost no effect))	0 (Herbicidal ratio of 5% or lower (almost no effect))	0 (Herbicidal ratio of 5% or lower (almost no effect))	0 (Herbicidal ratio of 5% or lower (almost no effect))	4 (Herbicidal ratio of 70% or higher and lower than 90%)	0 (Herbicidal ratio of 5% or lower (almost no effect))	0 (Herbicidal ratio of 5% or lower (almost no effect))	0 (Herbicidal ratio of 5% or lower (almost no effect))	2 (Herbicidal ratio of 20% or higher and lower than 40%)	0 (Herbicidal ratio of 5% or lower (almost no effect))	0 (Herbicidal ratio of 5% or lower (almost no effect))
CON=C(C)CC1CC(O)=C(c2c(C)cc(-c3ccc(C(F)(F)F)cc3)cc2C)C1=O (mixture of isomers) [6-016]	2 (Herbicidal ratio of 20% or higher and lower than 40%)	1 (Herbicidal ratio of 5% or higher and lower than 20%)	1 (Herbicidal ratio of 5% or higher and lower than 20%)	5 (Herbicidal ratio of 90% or more (almost completely withered))	5 (Herbicidal ratio of 90% or more (almost completely withered))	5 (Herbicidal ratio of 90% or more (almost completely withered))	4 (Herbicidal ratio of 70% or higher and lower than 90%)	0 (Herbicidal ratio of 5% or lower (almost no effect))	0 (Herbicidal ratio of 5% or lower (almost no effect))	0 (Herbicidal ratio of 5% or lower (almost no effect))	0 (Herbicidal ratio of 5% or lower (almost no effect))	0 (Herbicidal ratio of 5% or lower (almost no effect))	0 (Herbicidal ratio of 5% or lower (almost no effect))	0 (Herbicidal ratio of 5% or lower (almost no effect))	2 (Herbicidal ratio of 20% or higher and lower than 40%)	5 (Herbicidal ratio of 90% or more (almost completely withered))	3 (Herbicidal ratio of 40% or higher and lower than 70%)	3 (Herbicidal ratio of 40% or higher and lower than 70%)
CON=C(C)CC1CC(O)=C(c2c(C)cc(-c3ccc(C)cc3)cc2C)C1=O (mixture of isomers) [6-018]	3 (Herbicidal ratio of 40% or higher and lower than 70%)	5 (Herbicidal ratio of 90% or more (almost completely withered))	5 (Herbicidal ratio of 90% or more (almost completely withered))	5 (Herbicidal ratio of 90% or more (almost completely withered))	5 (Herbicidal ratio of 90% or more (almost completely withered))	5 (Herbicidal ratio of 90% or more (almost completely withered))	5 (Herbicidal ratio of 90% or more (almost completely withered))	3 (Herbicidal ratio of 40% or higher and lower than 70%)	0 (Herbicidal ratio of 5% or lower (almost no effect))	3 (Herbicidal ratio of 40% or higher and lower than 70%)	5 (Herbicidal ratio of 90% or more (almost completely withered))	5 (Herbicidal ratio of 90% or more (almost completely withered))	0 (Herbicidal ratio of 5% or lower (almost no effect))	0 (Herbicidal ratio of 5% or lower (almost no effect))	0 (Herbicidal ratio of 5% or lower (almost no effect))	5 (Herbicidal ratio of 90% or more (almost completely withered))	3 (Herbicidal ratio of 40% or higher and lower than 70%)	4 (Herbicidal ratio of 70% or higher and lower than 90%)
Cc1cc(C)c(C2=C(O)CC(CC(=O)C3CC3)C2=O)c(C)c1 (centres unmarked) [2-017]	5 (Herbicidal ratio of 90% or more (almost completely withered))	5 (Herbicidal ratio of 90% or more (almost completely withered))	4 (Herbicidal ratio of 70% or higher and lower than 90%)	5 (Herbicidal ratio of 90% or more (almost completely withered))	5 (Herbicidal ratio of 90% or more (almost completely withered))	5 (Herbicidal ratio of 90% or more (almost completely withered))	5 (Herbicidal ratio of 90% or more (almost completely withered))	0 (Herbicidal ratio of 5% or lower (almost no effect))	0 (Herbicidal ratio of 5% or lower (almost no effect))	0 (Herbicidal ratio of 5% or lower (almost no effect))	5 (Herbicidal ratio of 90% or more (almost completely withered))	5 (Herbicidal ratio of 90% or more (almost completely withered))	1 (Herbicidal ratio of 5% or higher and lower than 20%)	0 (Herbicidal ratio of 5% or lower (almost no effect))	0 (Herbicidal ratio of 5% or lower (almost no effect))	5 (Herbicidal ratio of 90% or more (almost completely withered))		0 (Herbicidal ratio of 5% or lower (almost no effect))
